Consider one compound from US20250152559A1, “METHODS FOR TREATING MYC-AMPLIFIED CANCER” (The Governing Council of the University of Toronto, priority 2023, published 2025).

Series [1] is described as follows: Parallel artificial membrane permeability assay (PAMPA) for blood-brain barrier. The series is classed as in vitro ADME. The source says:
The capacity of BQR and BAY to permeate the blood-brain barrier was first examined using the in vitro parallel artificial membrane permeability assay (PAMPA)^48 (FIG. 5A).

The subject of series [2] is SU_MB002 cells genomic DNA. Description: Differential methylation analysis (Illumina EPIC array). It is filed as cell-based, human. Here is the method: Illumina Human Infinium MethylationEPIC (EPIC) BeadChip (Illumina, CA, USA) array was performed at The Centre for Applied Genomics, The Hospital for Sick Children (Toronto) using the manufacturer's standard protocol.
Raw IDAT files (annotation: ilm10b4.hg19) were processed using R (Version 4.1.2) and quality control and normalization was performed using minfi^76. Intensity and density plots were generated, and no samples were removed from the analysis as the mean detection p-values for all probed genomic positions were <0.01 for each sample. Probes with mean detection p-values >0.01 across all samples were excluded. Probes mapping sex chromosomes, single nucleotide polymorphisms (SNPs), and cross-hybridisation probes were removed. Quantile normalization was performed, and density plots were generated before and after normalization. Differential analysis was completed with beta values of 768467 CpGs for 8 samples comparing BAY to DMSO at 48 h and 72 h using limma^77. P-values were adjusted for False Discovery Rate (FDR) using Benjamini and Hochberg method, and a 10% FDR and log FC of >|0.1| cut-off was used.
Differentially methylated positions (DMPs) were annotated using the USCS (UCSC_RefGene_Name, UCSC_RefGene_Group and Relation_to_Island) from the Infinium MethylationEPIC Manifest. The analysis was performed focusing on DMPs within promoter islands (considering TSS1500, TSS200, 5′UTR and 1st exon as promotor regions). Enrichment analysis of unique genes (using UCSC RefGene Name) identified within DMPs at promoter islands was performed using Enrichr (ENCODE TF ChIP-seq 2015)^43.

Series [3] deals with O-GlcNAc-conjugated proteins and c-Myc in HD-MB03 and SU_MB002 tumor cells. Description: Western blotting of O-GlcNAc-linked proteins and c-Myc. It is filed as cell-based, human. Particulars: HD-MB03 and SU_MB002, BAY vs vehicle. The source says:
Uridine metabolite depletion may impact not only the macromolecular demands of the rapidly cycling cellular phenotype identified through scRNA-seq analysis (inducing cell cycle arrest), but also the potentiation of oncogenic signaling programs. […] To determine whether reduced UDP-GlcNAc abundance influences O-GlcNAcylation of proteins and/or expression of c-Myc at the protein level, the abundance of β-O-glycosidic-linked proteins (Ser and Thr residues) and the expression of c-Myc protein in HD-MB03 and SU_MB002 tumor cells treated with BAY or its vehicle, were measured using Western blotting.
Protein lysates were isolated from approximately 500,000-1,000,000 cells. Pellets were rinsed with PBS and then lysed in RIPA buffer containing HALT™ protease inhibitor cocktail (ThermoFisher). Protein concentrations were quantified using the Bradford Assay (BioRad). Protein size was resolved via SDS-PAGE and then transferred to PVDF for immunoblotting. […] Quantification was performed by analyzing mean pixel density of each band and then normalizing to GAPDH loading control. […]

`CCn1c(CO)nn(-c2cc(O[C@@H](C)C(F)(F)F)c(C(=O)Nc3c(F)cccc3Cl)cc2F)c1=O` [BAY2402234]: in series [1], the “penetration coefficient (log PE)” value was “superior penetration coefficient (log PE) compared to BQR”. Moreover, the figures for the “DMPs in promoter islands” value in series [2] (48 h) and in series [2] (72 h) were 2/18 and 123/751, respectively. The “differentially methylated positions (DMPs), BAY vs vehicle” value in series [2] (48 h of treatment) was determined as 18; in series [2] (72 h of treatment), 751. In addition, the “abundance of O-GlcNAc-conjugated proteins” value in series [3] is “global reduction”. In series [3], the c-Myc protein expression entry was “significant reduction”.
